Experiments:
RMA-S cells = assay type: cell-based, mouse
[1] = tested on: MVA-L1Δc-infected B6 cells; assay type: cell-based, mouse

Row | Substance | specific lysis of peptide-preincubated RMA-S target cells by spleen cells of L1-immunized mouse 1 (RMA-S cells) | specific lysis of MVA-F6-infected (control virus) B6 target cells by spleen cells of the immunized mouse [1] | specific lysis of MVA-L1Δc-infected B6 target cells by spleen cells of the immunized mouse [1]
1 | ASNENMETM (Influenza Virus Type A) [AM control peptide] | did not cause any distinct lysis | – | –
2 | L1 VLPs: HPV16 L1 virus-like particles (Muller M. et al. 1997) | – | not the MVA-F6-infected target cells | lysed the MVA-L1Δc-infected target cells
